The test system of experiment [1] is human ovarian granulosa cells. Conditions: 50 μM for 3 days; cited from earlier work.
For another experiment, the system named is ERK. Briefly: Immunoblot of phosphorylated ERK in Hs578T cells. In kind it is cell-based, human. Conditions: between 8 and 16 h post-stearate, sustained up to 24 h. The protocol: (§1) The concentration of stearate used to treat the Hs578T cells was 50 μM. When EGF was used, the concentration was 1 nM EGF. Before the treatment with stearate or EGF, cells were first starved for 24-48 hours. Stearate was loaded onto fatty acid-free bovine serum albumin (BSA) according to the method reported by Spector et al. (13); briefly, stearate (0.5 g) was dissolved in chloroform (100 ml) and mixed well with 10 g diatomaceous earth in a 1 liter flask. The mixture was stirred and dried under nitrogen until powder. BSA is a physiological carrier of fatty acids and was used to avoid the introduction of organic solvents to solutions coming into contact with cells. Fatty acid-free BSA (1 g) was dissolved in 100 ml with Dulbecco's modified Eagle's medium without phenol red and mixed with 3 g of the stearate/diatomaceous earth mixture with stirring for 45 min. The stearate/BSA solution was filtered through a 0.45 μm filter, and adjusted to pH 7.4. The concentration of stearate in the solution was detected with the NEFA C Kit from Wako Chemicals GmbH (Neuss, Germany). All experimental data on Hs578T cells were controlled using fatty acid-free BSA control solutions that were put through the same preparatory procedure described for the stearate/BSA solution except for the fact that no fatty acid was added.
Cells were treated as described above, and lysed with lysis buffer. […]
A general note: In western blotting, separated proteins are transferred to a membrane and probed.

For experiment [2], the system named is p21^CIP1/WAF1, p27^KIP1, pCdk2. Briefly: Immunoblot of p21CIP1/WAF1, p27KIP1 and phosphorylated Cdk2 in Hs578T cells. Type of experiment: cell-based, human. Conditions: 50 μM stearate, Hs578T. The protocol: as §1
Cells were treated as described above, and lysed with lysis buffer. The supernatants of the lysates or the immunoprecipitates were loaded with Laemmli sample buffer on 10% sodium dodecyl sulfate-polyacrylamide gel electrophoresis gels after boiling at 100° C. for 5 min. Proteins were then transferred to a polyvinylidene difluoride membrane. The membranes were blocked overnight at 4° C. with blocking buffer containing 5% non-fat dried milk powder in Tris-buffered saline-T (25 mM Tris, 140 mM NaCl, 2.7 mM KCl, 0.05% Tween-20, pH 8.0), incubated with primary antibody in blocking buffer at room temperature for 1 hour and incubated with antirabbit or antimouse antibodies labeled with horseradish peroxidase (1:5000) in blocking buffer under the same conditions, and then washed three times for 10 min in Tris-buffered saline-T. The polyvinylidene difluoride membranes were washed and developed using enhanced chemiluminescence reagents.

In a further experiment the test system is caspase-3. The experiment in a line: Caspase-3 activity assay in 3T3L1 preadipocytes. Conditions: 48 hours treatment. In kind it is cell-based, mouse. The protocol:
50 μM of stearate, oleate or linoleate was used to treat 3T3L1 cells as this concentration is centered within the normal range for non-esterified stearate in the plasma of humans. Stearate, oleate, or linoleate was loaded onto fatty acid free BSA according to the method reported by Spector and Hoak (Spector and Hoak, 1969). Briefly, stearate (0.5 g) was dissolved in chloroform (100 mL) and mixed well with 10 g diatomaceous earth in a 1 liter flask. The mixture was stirred and dried under nitrogen until powder. Fatty acid free BSA (1 g) was dissolved in 100 mL with DMEM without phenol red and mixed with 3 g of the stearate/diatomaceous earth mixture and stirred for 30 minutes. The stearate/BSA solution was filtered through a 0.45 μm filter, and adjusted to pH 7.4. The concentration of stearate in the solution was detected by use of a NEFA C kit. Oleic and linoleate were loaded in the same way. All experimental data on 3T3L1 cells were confirmed using fatty acid free BSA control solutions that were put through the same preparatory procedure described except for the fact that no fatty acid was added. Before the treatment with fatty acid, 3T3L1 preadipocytes were grown to 100%, and were starved in 2% FBS medium for 24 hours.
Caspase-3 activity was measured using the EnzCheck Capase-3 Activity Kit #1 according to the manufacturer's instructions (Molecular Probes Inc. Eugene, Oreg.).

For experiment [3], the system named is visceral adipocytes from ApoE knockout mice. Briefly: Expression of cIAP2, Bcl-2 and Bax in visceral adipocyte cultures. Particulars: 50 μM fatty acid; vs no additional fatty acid. In kind it is cell-based. How it is done: It was hypothesized that stearate induces apoptosis in visceral adipocytes by at least one of the following mechanisms: inhibition of cIAP2, activation of Bcl-2, and activation of BAX. […] Six cultures were exposed to each fatty acid or no fatty acid. The expression of cIAP2, Bcl-2, and Bax was measured in each culture. […] By decreasing levels of the cIAP2 and/or Bcl-2 polypeptides and increasing expression of the Bax polypeptide, stearate administration may lead to an increase in cellular apoptotic activity (such as but not limited to the visceral fat tissues). Without wishing to be bound by any given hypothetical model, it is proposed that this reduction in cIAP2 expression and this increase in Bax expression (independently or in combination) is responsible for the relative decrease in visceral fat tissue that is observed when animals are given a diet that is high in stearate.

In experiment [4] the test system is Hs578T human breast cancer cells. Briefly: Flow cytometry cell cycle analysis. Conditions: 50 μM stearate. In kind it is cell-based. How it is done: Hs578T human breast cancer cells (ATCC, HTB-126) were maintained according to the manufacturer's recommendations, in Dulbecco's modified Eagle's medium containing 10% fetal bovine serum, […] insulin and penicillin/streptomycin.
The concentration of stearate used to treat the Hs578T cells was 50 μM. When EGF was used, the concentration was 1 nM EGF. Before the treatment with stearate or EGF, cells were first starved for 24-48 hours. Stearate was loaded onto fatty acid-free bovine serum albumin (BSA) according to the method reported by Spector et al. (13); briefly, stearate (0.5 g) was dissolved in chloroform (100 ml) and mixed well with 10 g diatomaceous earth in a 1 liter flask. The mixture was stirred and dried under nitrogen until powder. BSA is a physiological carrier of fatty acids and was used to avoid the introduction of organic solvents to solutions coming into contact with cells. […] The concentration of stearate in the solution was detected with the NEFA C Kit from Wako Chemicals GmbH (Neuss, Germany). […]
To analyze cellular DNA content, confluent Hs578t cells were harvested, fixed in ice-cold 70% ethanol for 30 min and then resuspended in citrate buffer (4 mM sodium citrate) containing 50 μg/ml of propidium iodide and 100 μg/ml of RNase. […] Data were analyzed using the ModFit LT workshop program (BD Immunocytometry System, San Jose, Calif.).
On the technique in general: A flow cytometer gives signals particle by particle.

The next experiment concerns MCF10A. Particulars: ref (27); cited from earlier work.

The values that follow come from patent US20140357706A1, “Stearate Compounds” (THE UAB RESEARCH FOUNDATION, priority 2011, published 2014).

For the molecule `CCCCCCCCCCCCCCCCCC(=O)O` [stearate, Stearic acid], in experiment [1], the Cell viability entry is listed as “no decrease”. The “Phosphorylation of ERK” value in the experiment with ERK is listed as “increased”. Besides, in experiment [2], the “Protein level of p21^CIP1/WAF1” value was “increases”, the “Protein level of p27^KIP1” value is “increases” and the pCdk2 entry is reported as “decreased”. In the experiment with caspase-3, the Caspase-3 activity entry is reported as “increased significantly”. For the same molecule, in experiment [3], the “Expression of Bax” value was “increases” and the “Expression of cIAP2” value is reported as “reduces”. In experiment [4], the “Cells in the S phase” value is “reduced”. Also, in experiment [4] (also in complete media and with EGF), the “Number of cells in G0/G1 and G2/M” value is “increased”. The “Effect on MCF10A non-tumorigenic cell line” value with MCF10A is “not affected”.
